These results are taken from patent publication US4411908A, “Imidazoline derivatives as presynaptic α2 -adrenoreceptor antagonists” (priority 1981, dated 1983).

Test [1] concerns postsynaptic α-adrenoreceptor (pithed rat). The experiment in a line: Postsynaptic α-adrenoreceptor agonist activity in the pithed rat (diastolic blood pressure). The following applies: for i.v. dose causing 50 mmHg increase in diastolic blood pressure: Table 5, naive pithed rats.
Procedure: In vivo presynaptic α-adrenoreceptor antagonist activity was determined using the methods outlined in section 2.
Test [2] concerns the target T1, presynaptic α2-adrenoreceptor (rat vas deferens) (Rattus norvegicus, UniProt P22909).
T1 construct: on the rat vas deferens stimulated at a frequency of 0.1 Hz; from tissue; host or cells: isolated rat vas deferens
T1 sequence (P22909 1-465): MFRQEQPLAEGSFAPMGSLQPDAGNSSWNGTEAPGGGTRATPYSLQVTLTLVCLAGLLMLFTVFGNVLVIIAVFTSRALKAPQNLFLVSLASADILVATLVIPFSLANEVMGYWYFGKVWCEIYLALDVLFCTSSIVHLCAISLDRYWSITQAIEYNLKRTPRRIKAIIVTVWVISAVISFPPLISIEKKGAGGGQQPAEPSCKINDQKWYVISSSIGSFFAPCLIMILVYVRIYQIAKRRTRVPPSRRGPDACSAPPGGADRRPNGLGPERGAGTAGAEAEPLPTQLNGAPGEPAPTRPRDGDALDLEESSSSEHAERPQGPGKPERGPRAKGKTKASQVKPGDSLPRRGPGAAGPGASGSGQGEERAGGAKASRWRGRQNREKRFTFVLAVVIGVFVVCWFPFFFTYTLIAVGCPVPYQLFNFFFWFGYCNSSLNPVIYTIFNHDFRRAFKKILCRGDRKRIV
The experiment in a line: Presynaptic α-adrenoreceptor antagonism vs clonidine, isolated rat vas deferens (0.1 Hz stimulation). The format is cell-based.

For test [3], the target named is T2, postsynaptic α-adrenoreceptor (rat anococcygeus muscle) (Rattus norvegicus, UniProt P43140).
T2 construct: the rat anococcygeus muscle is used to establish postsynaptic α-adrenoreceptor activity; from tissue; host or cells: isolated rat anococcygeus muscle
T2 sequence (P43140 1-466): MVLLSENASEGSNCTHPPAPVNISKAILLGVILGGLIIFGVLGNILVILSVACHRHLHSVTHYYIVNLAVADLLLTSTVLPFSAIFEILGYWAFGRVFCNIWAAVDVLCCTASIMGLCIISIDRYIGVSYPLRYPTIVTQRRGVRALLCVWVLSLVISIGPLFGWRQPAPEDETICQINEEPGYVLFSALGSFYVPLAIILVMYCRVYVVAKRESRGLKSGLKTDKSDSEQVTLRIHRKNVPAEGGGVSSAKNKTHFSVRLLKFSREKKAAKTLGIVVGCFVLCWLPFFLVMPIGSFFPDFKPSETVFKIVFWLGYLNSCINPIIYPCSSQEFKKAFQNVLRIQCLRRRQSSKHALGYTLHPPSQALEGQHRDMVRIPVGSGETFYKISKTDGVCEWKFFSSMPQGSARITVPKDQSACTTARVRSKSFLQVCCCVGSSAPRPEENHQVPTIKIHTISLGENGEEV
The experiment in a line: Postsynaptic α-adrenoreceptor antagonism vs noradrenaline contractions, isolated rat anococcygeus muscle. The format is cell-based. From the text:
This in vitro model is particularly useful as an initial screen for studying presynaptic activity in isolation since the physiological nature of the vas deferens tissue is such that the postsynaptic receptors located therein are particularly inaccessible to exogenous agents. In consequence an alternative tissue, the rat anococcygeus muscle is used to establish postsynaptic α-adrenoreceptor activity. Antagonism of noradrenaline contractions is used to determine pA2 values at postsynaptic α-adrenoreceptors.

The subject of test [4] is presynaptic α-adrenoreceptor (vas deferens, pithed rat). The experiment in a line: Presynaptic α-adrenoreceptor antagonism in the pithed rat (reversal of clonidine block on vas deferens, i.v.). The following applies: for i.v. dose of antagonist causing 50% reversal of clonidine block on vas deferens: Table 3, cumulative i.v. dosing, clonidine 100 μg/kg i.v., mean of a minimum of 4 rats.
Procedure: The test drugs were injected intravenously in a cumulative dosing schedule and their abilities to reverse the inhibition of hypogastric nerve stimulation reflected their presynaptic antagonism.

The target in test [5] is T3, postsynaptic α-adrenoreceptor (anococcygeus muscle) (Rattus norvegicus, UniProt P43140).
T3 construct: compound giving 50% maximum contraction in this instance, of the anococcygeus muscle; from tissue; host or cells: isolated anococcygeus muscle (rat)
T3 sequence (P43140 1-466): T2 sequence (P43140 1-466)
The experiment in a line: Postsynaptic α-adrenoreceptor agonist activity, isolated anococcygeus muscle. It counts as cell-based. Particulars: Table 4; negative log of molar concentration giving 50% maximum contraction; mean of a minimum of 3 experiments; read-out: Postsynaptic agonism pD2 (anococcygeus) (converted).

Counter-ions that a name gives are not always drawn. Like-named read-outs stand apart in the source and are kept apart here.

On to `Clc1cccc(Cl)c1N=C1NCCN1` [Clonidine, reference compound], for which the “i.v. dose causing 50 mmHg increase in diastolic blood pressure” value (“i.v. dose causing 50 mmHg increase” below) in test [1] turned out to be 0.003 mg/kg.

Regarding `c1ccc2oc(C3=NCCN3)cc2c1` [Compound A, 2-(2-benzofuranyl)-2-imidazoline, reference compound], the Kb was 832 nM in test [2] (Table 4, isolated rat vas deferens, mean of a minimum of 3 experiments) and 5750 nM in test [3] (Table 4, rat anococcygeus muscle, read-out: postsynaptic antagonist pA2 (rat anococcygeus muscle) (converted)).

As to `Clc1ccc2c(c1)CC(C1=NCCN1)O2` (stereo not drawn) [Example 5, 2-[2-(5-chloro-2,3-dihydrobenzofuranyl)]-2-imidazoline hydrochloride], the Kb in test [2] is 6.31 nM; in test [3] (Table 2, isolated rat anococcygeus, mean of a minimum of 5 experiments, read-out: Postsynaptic antagonism pA2 vs Noradrenaline (anococcygeus) (converted)), 631 nM. In test [2] (antagonism vs clonidine (rat vas deferens) to antagonism vs noradrenaline (rat anococcygeus)), the Pre/post synaptic ratio was 100. For the same compound, the “i.v. dose of antagonist causing 50% reversal of clonidine block on vas deferens” value in test [4] amounted to 0.102 mg/kg. In test [4] (compound of Example 5 compared with phentolamine), the “relative potency against in vivo presynaptic α-adrenoreceptor stimulant effects of clonidine” value is “approximately equipotent”. In addition, the “potency relative to yohimbine in pithed rats” value in test [4] (vs yohimbine, i.v. (Table 3)) was “approximately 8 times”.

`c1ccc2c(c1)CC(C1=NCCN1)O2` (stereo not drawn) [Example 6, 2-[2-(2,3-dihydrobenzofuranyl)]-2-imidazoline hydrochloride] had a Kb in test [2] of 3.16 nM. Besides, the “presynaptic α-adrenoreceptor antagonist properties” value in test [2] (qualitative, b182: in both isolated tissues and intact animals) is reported as “displays presynaptic α-adrenoreceptor antagonist properties”. Besides, the “potency as presynaptic α2 antagonist relative to the analogous dehydro compound” value in test [2] (vs dehydro compound (Compound A), isolated vas deferens) is recorded as “more than 200 times”. For the same compound, the EC50 in test [5] was 501 nM. For the same compound, the “i.v. dose causing 50 mmHg increase” value in test [1] is given as 0.020 mg/kg. The “potency as postsynaptic α-adrenoreceptor agonist relative to phenylephrine” value in test [1] (vs phenylephrine, conclusion of section 4) is “slightly more potent than phenylephrine”. In test [4] (Table 5), the “i.v. dose causing 50% reversal of clonidine block on vas deferens” value is recorded as 0.030 mg/kg.

For `CN1CCN2c3ccccc3Cc3ccccc3C2C1` (stereo not drawn) [Mianserin HCl, reference compound], the “i.v. dose of antagonist causing 50% reversal of clonidine block on vas deferens” value in test [4] is over 4.4 mg/kg.

Consider `CN1CCN2c3ccccc3Cc3ccccc3C2C1` (stereo not drawn) [Mianserin, reference compound], for which the “maximum reversal of the inhibitory effects of clonidine on hypogastric nerve stimulation” value in test [4] (cumulative intravenous dose of 4.4 mg/kg) was determined as 36%.

`Cc1ccc(N(CC2=NCCN2)c2cccc(O)c2)cc1` [Phentolamine mesylate, reference compound]: the “i.v. dose of antagonist causing 50% reversal of clonidine block on vas deferens” value in test [4] is reported as 0.12 mg/kg.

Regarding `CNC[C@H](O)c1cccc(O)c1` [Phenylephrine, reference compound], the “i.v. dose causing 50 mmHg increase” value in test [1] was 0.030 mg/kg.

As to `COC(=O)[C@@H]1[C@H]2C[C@H]3c4[nH]c5ccccc5c4CCN3C[C@@H]2CC[C@@H]1O` [Yohimbine HCl, reference compound], the “i.v. dose of antagonist causing 50% reversal of clonidine block on vas deferens” value in test [4] is 0.86 mg/kg.
